According to US4011182A, “Cyclic undecapeptide analogs of somatostatin and intermediates” (American Home Products Corporation, priority 1975, dated 1977):
Like-named read-outs stand apart in the source and are kept apart here. Where a SMILES comes first, the peptide text is derived from it.

Legend:
growth hormone [1] = test: Growth hormone level by radioimmunoassay in nembutal-treated rats after subcutaneous injection; assay type: in vivo
Description: The growth hormone activities of the compounds of Example 5 was determined by injecting rats weighing about 200-250 g. first with nembutal intraperitoneally at a dose of 50 mg/kg then after 5 minutes injecting the rats subcutaneously with a solution of the compound of Example 5 in saline at a dose of 2 mg/kg per rat. Blood samples are taken 15 minutes after injection with the compound of Example 5 and the growth hormone level determined by radioimmunoassay. […] The foregoing experiment was repeated but the dose of the compound of Example 5 was raised to 2.38 mg/kg and the blood was sampled 2 hours after injection.

glucagon = test: In vivo assay of simultaneous release of growth hormone, insulin and glucagon (pentobarbital, arginine): glucagon; design: species or system rats
Description: (§1) Another test was conducted with the compound of Example 5 to determine its effect upon insulin and glucagon levels. The in vivo assay determining simultaneous release of growth hormone, insulin and glucagon was carried out by injecting three groups of male rats weighing about 200 to 250 g. (9 animals per group) with pentobarbital intraperitoneally at a dose of 50 mg/kg per rat followed 15 minutes […], a subcutaneous injection of SRIF at a dose of 0.2 mg/kg to another group of rats and a subcutaneous injection of saline solution to the third group of rats. Ten minutes after such injection the rats receive 150 mg. arginine in 0.5 ml. saline directly in the heart. Five minutes later the rats are decapitated, the blood collected and various radioimmunoassays are run.

insulin = test: In vivo assay of simultaneous release of growth hormone, insulin and glucagon (pentobarbital, arginine): insulin; design: species or system rats
Description: as §1, with “pentobarbital” for “pentobarbital intraperitoneally at a dose of 50 mg/kg per rat followed 15 minutes”

growth hormone [2] = system: growth hormone
Description: Another test was conducted with the compound of Example 5 to determine its effect upon insulin and glucagon levels. The in vivo assay determining simultaneous release of growth hormone, insulin and glucagon was carried out by injecting three groups of male rats weighing about 200 to 250 g. (9 animals per group) with pentobarbital intraperitoneally at a dose of 50 mg/kg per rat followed 15 minutes later by a subcutaneous injection of the compound of Example 5 at a dose of 2.7 mg/kg to one group of rats, a subcutaneous injection of SRIF at a dose of 0.2 mg/kg to another group of rats and a subcutaneous injection of saline solution to the third group of rats. Ten minutes after such injection the rats receive 150 mg. arginine in 0.5 ml. saline directly in the heart. Five minutes later the rats are decapitated, the blood collected and various radioimmunoassays are run.

[3] = male rats, 2.7 mg/kg subcutaneously, arginine stimulated

Compound	growth hormone level (growth hormone [1]; rats, 2 mg/kg subcutaneously, blood 15 minutes after injection, control 132 ± 20) [ng/mL]	growth hormone level (growth hormone [1]; rats, 2.38 mg/kg subcutaneously, blood 2 hours after injection, control 244 ± 38) [ng/mL]	glucagon levels (glucagon; [3])	insulin levels (insulin; [3])	growth hormone level (growth hormone [1]; rats, 1,500 μg/kg, after four hours, control 182 ± 49) [nanograms per milliliter]	growth hormone level (growth hormone [1]; rats, 1,500 μg/kg, two hours after administration, control 180 ± 27) [nanograms per milliliter]	Glucagon (glucagon; experiment 3, dose 3,000 μg/kg, control 129±9) [picog/ml]	Insulin (insulin; experiment 1, dose 3,000 μg/kg, control 194±17) [μU/ml]	Insulin (insulin; experiment 3, dose 3,000 μg/kg, control 183±19) [μU/ml]	GH (growth hormone [2]; experiment 1, dose 3,000 μg/kg, control 247±52) [ng/mL]	GH (growth hormone [2]; experiment 2, dose 12 μg/kg, control 315±22) [ng/mL]
C[C@@H](O)[C@@H]1NC(=O)[C@H](Cc2ccccc2)NC(=O)[C@H]([C@@H](C)O)NC(=O)[C@H](CCCCN)NC(=O)[C@H](Cc2c[nH]c3ccccc23)NC(=O)[C@H](Cc2ccccc2)NC(=O)[C@H](Cc2ccccc2)NC(=O)[C@H](CC(N)=O)NC(=O)[C@H](CCCCN)NC(=O)CC[C@@H](C(=O)O)NC(=O)[C@H](CO)NC1=O [Example 5, L-lysyl-L-asparaginyl-L-phenylalanyl-L-phenylalanyl-L-tryptophyl-L-lysyl-L- threonyl-L-phenylalanyl-L-threonyl-L-seryl-L-glutamyl (cyclo α-lysyl to γ-glutamyl) peptide] (HELM PEPTIDE1{K.N.F.F.W.K.T.F.T.S.E}$PEPTIDE1,PEPTIDE1,1:R1-11:R3$$$V2.0)	79 ± 14	89 ± 23	neither glucagon nor insulin levels were lowered	neither glucagon nor insulin levels were lowered							
L-Lysyl-L-asparaginyl-L-phenylalanyl-L-phenylalanyl-D-tryptophyl-L-lysyl-L- threonyl-L-phenylalanyl-L-threonyl-L-seryl-glutamyl-(cyclo-α-lysyl to γ-glutamyl)peptide [Example 6]					34 ± 11	18 ± 4	107±9	152±13	93±9	61 ± 7	192 ± 29
